≈ marks a conversion by molar mass, not a printed value.
Assays:
[1] = test system: Staphylococcus aureus ATCC25923; assay: In vitro antibacterial activity (MIC, NCCLS M7-A5 dilution susceptibility test); format: cell-based; conditions: for MIC: read-out: Minimum Inhibitory Concentration (MIC) Staphylococcus aureus ATCC25923
Method: (§1) Antimicrobial susceptibility testing was performed in accordance with the National Committee for Clinical Laboratory Standards (NCCLS) procedure [M7-A5, 2001: Methods for Dilution Antimicrobial Susceptibility Tests for Bacteria That Grow Aerobically; Approved Standard-Fifth Edition American National Standard].

[2] = test system: Escherichia coli DC2; assay: as above; format: cell-based; conditions: for MIC: read-out: Minimum Inhibitory Concentration (MIC) Escherichia coli DC2
Method: as §1

[3] = target: enzyme I of the bacterial phosphotransferase system (PTS) (Escherichia coli, UniProt P08839); assay: Assay for Enzyme I dependent PEP: peptide phosphotransferase activity (LDH-coupled, NADH read-out at 340 nm); format: biochemical; conditions: enzyme I 0.75 μM, 0.8 mM PEP, pH 7.5; read-out: Inhibition of PTS (IC50 in μM)
Source text: The determination of activity of a compound of the present invention in the PTS may be summarized as follows:
Assay for Enzyme I Dependent PEP:
Peptide Phosphotransferase Activity. [formula]
To find inhibitors of Enzyme I of the PTS by high throughput screening, an in vitro assay based on spectrophotometric read out at 340 nm has been set up. The assay comprises of three major components, purified enzyme I in catalytic amounts, Phosphoenol Pyruvate (PEP) as the phosphoryl donor substrate and purified HPr as the phosphoryl acceptor substrate.
The assay couples the formation of pyruvate formed from PEP to lactate, catalyzed by lactate dehydrogenase. The disappearance of NADH, cofactor required by lactate dehydrogenase, is determined spectrophotometerically at 340 nm. The assay is done in a U-shaped microtiter plate format, and quantitation is done using microplate absorbance reader.
100 μl reaction mixture contained 0.8 mM PEP, 0.2 mM NADH, 3 μg lactate dehydrogenase (Boehringer Mannheim), 50 mM KPi pH=7.5, 2.5 mM dithiothreitol, 2.5 mM NaF, 5 mM MgCI2, and between 50 and 100 μM of the compound. The reaction is started by the addition of enzyme I (final concentration 0.75 μM). In a control experiment the compound is replaced by DMSO.

[4] = test system: Staphylococcus aureus 101; assay: In vitro antibacterial activity (MIC, NCCLS M7-A5 dilution susceptibility test); format: cell-based; conditions: for MIC: read-out: Minimum Inhibitory Concentration (MIC) Staphylococcus aureus 101
Method: as §1

Row | Compound | MIC [1] | MIC [2] | IC50 [3] | also measured
1 | COc1cc(C(=O)NN=Cc2cc(Cl)ccc2O)ccc1O [Example 14, 4-Hydroxy-3-methoxy-N′-(5-chloro-2-hydroxy-benzylidene)-benzohydrazide] | 128 µg/mL (≈ 399 µM) | 128 µg/mL (≈ 399 µM) | 25 µM | 
2 | O=C(NN=Cc1cccc(O)c1O)c1ccc(Cl)c(Cl)c1 [Example 40, 3,4-Dichloro-N′-(2,3-dihydroxy-benzylidene)-benzohydrazide] | 4 µg/mL (≈ 12.3 µM) | > 128 µg/mL |  | MIC [4]: 4 µg/mL (≈ 12.3 µM)
3 | 3,5-Bis-(trifluoromethyl)-N′-(2,3,4-trihydroxy-benzylidene)-benzohydrazide [Example 41] |  |  |  | Minimum Inhibitory Concentration (MIC) Staphylococcus aureus 101 [4]: 64 micrograms/ml; Minimum Inhibitory Concentration (MIC) Staphylococcus aureus ATCC25923 [1]: 64 micrograms/ml; Minimum Inhibitory Concentration (MIC) Escherichia coli DC2 [2]: na (na means not active at concentrations less than 128 μg/ml)
4 | O=C(NN=Cc1ccc(O)c(O)c1O)c1ccc(Cl)c(Cl)c1 [Example 9, 3,4-Dichloro-N′-(2,3,4-trihydroxy-benzylidene)-benzohydrazide] | 8 µg/mL (≈ 23.5 µM) | 32 µg/mL (≈ 93.8 µM) | 75 µM | 
5 | CN(N=Cc1ccc(O)c(O)c1O)C(=O)c1ccc(Cl)c(Cl)c1 [Example 53, 3,4-Dichloro-N-methyl-N′-(2,3,4-trihydroxy-benzylidene)-benzohydrazide] | 128 µg/mL (≈ 360 µM) | > 128 µg/mL |  | 
6 | O=C(NN=Cc1ccc(O)c(O)c1O)c1cccc(Cl)c1 [Example 49, 3-Chloro-N′-(2,3,4-trihydroxy-benzylidene)-benzohydrazide] | 16 µg/mL (≈ 52.2 µM) | 64 µg/mL (≈ 209 µM) |  | 
7 | O=C(NN=Cc1cc(Cl)cc(Cl)c1O)c1ccc(Cl)c(C(F)(F)F)c1 [Example 46, 4-Chloro-3-trifluoromethyl-N′-(2-hydroxy-3,5-dichloro-benzylidene)-benzohydrazide] | 128 µg/mL (≈ 311 µM) | > 128 µg/mL |  | MIC [4]: 128 µg/mL (≈ 311 µM)
8 | O=C(NN=Cc1ccc(O)c(O)c1O)c1ccc(Cl)c(C(F)(F)F)c1 [Example 45, 4-Chloro-3-trifluoromethyl-N′-(2,3,4-trihydroxy-benzylidene)-benzohydrazide] | 0.5 µg/mL (≈ 1.33 µM) | 2 µg/mL (≈ 5.34 µM) |  | MIC [4]: 1 µg/mL (≈ 2.67 µM)
9 | O=C(NN=Cc1cc(O)ccc1O)c1ccccc1 [Example 1, N′-(2,5-Dihydroxy-benzylidene)-benzohydrazide] | 64 µg/mL (≈ 250 µM) | 128 µg/mL (≈ 499 µM) | 15 µM | 
10 | O=C(NN=Cc1cc(O)ccc1O)c1ccc(Cl)cc1 [Example 10, 4-Chloro-N′-(2,5-dihydroxy-benzylidene)-benzohydrazide] | 128 µg/mL (≈ 440 µM) | > 128 µg/mL | 8 µM | 
11 | O=C(NN=Cc1cc(O)c(O)cc1O)c1ccccc1-n1cccc1 [Example 44, 2-Pyrrol-1-yl-N′-(2,4,5-trihydroxy-benzylidene)-benzohydrazide] | 64 µg/mL (≈ 190 µM) | 128 µg/mL (≈ 379 µM) |  | MIC [4]: 64 µg/mL (≈ 190 µM)
12 | COc1cc(C(=O)NN=Cc2ccc(O)c(O)c2O)cc(OC)c1OC [Example 4, 3,4,5-Trimethoxy-N′-(2,3,4-trihydroxy-benzylidene)-benzohydrazide] | 128 µg/mL (≈ 353 µM) | 128 µg/mL (≈ 353 µM) | 15 µM | 
13 | COc1ccc(C(=O)NN=Cc2ccc(O)c(O)c2O)cc1 [Example 39, 4-Methoxy-N′-(2,3,4-trihydroxy-benzylidene)-benzohydrazide] | 64 µg/mL (≈ 212 µM) | 64 µg/mL (≈ 212 µM) |  | MIC [4]: 64 µg/mL (≈ 212 µM)
14 | O=C(NN=Cc1cc(Cl)ccc1O)c1cccc(C(F)(F)F)c1 [Example 21, 3-Trifluoromethyl-N′-(5-chloro-2-hydroxy-benzylidene)-benzohydrazide] | 16 µg/mL (≈ 46.7 µM) | > 128 µg/mL | 12 µM | 
15 | O=C(NN=Cc1cc(O)c(O)cc1O)c1ccc(Cl)cc1 [Example 47, 4-Chloro-N′-(2,4,5-trihydroxy-benzylidene)-benzohydrazide] | 8 µg/mL (≈ 26.1 µM) | 64 µg/mL (≈ 209 µM) |  | 
16 | O=C(NN=Cc1ccc(O)cc1O)c1cccc(C(F)(F)F)c1 [Example 6, 3-Trifluoromethyl-N′-(2,4-dihydroxy-benzylidene)-benzohydrazide] | > 128 µg/mL | 32 µg/mL (≈ 98.7 µM) | 10 µM | 
17 | O=C(NN=Cc1cc(Cl)cc(Cl)c1O)c1cccc(Cl)c1-n1cccc1 [Example 43, 3-Chloro-2-pyrrol-1-yl-N′-(2-hydroxy-3,5-dichloro-benzylidene)-benzohydrazide] | 2 µg/mL (≈ 4.89 µM) | > 128 µg/mL |  | MIC [4]: 2 µg/mL (≈ 4.89 µM)
18 | O=C(NN=Cc1ccc(O)c(O)c1O)c1cccc(Cl)c1-n1cccc1 [Example 42, 3-Chloro-2-pyrrol-1-yl-N′-(2,3,4-trihydroxy-benzylidene)-benzohydrazide] | 32 µg/mL (≈ 86.1 µM) | 128 µg/mL (≈ 344 µM) |  | MIC [4]: 32 µg/mL (≈ 86.1 µM)
19 | O=C(NN=Cc1cc(O)ccc1O)c1ccc(O)cc1 [Example 11, 4-Hydroxy-N′-(2,5-dihydroxy-benzylidene)-benzohydrazide] |  |  | 0.5 µM | 
20 | O=C(NN=Cc1cc(O)ccc1O)c1cccc(Cl)c1 [Example 13, 3-Chloro-N′-(2,5-dihydroxy-benzylidene)-benzohydrazide] |  |  | 0.7 µM | 
21 | O=C(NN=Cc1cc(O)c(O)cc1O)c1cccc(C(F)(F)F)c1 [Example 50, 3-Trifluoromethyl-N′-(2,4,5-trihydroxy-benzylidene)-benzohydrazide] | 32 µg/mL (≈ 94 µM) | > 128 µg/mL |  | 
22 | CC(=O)Nc1ccccc1C(C)=NNC(=O)c1ccccc1 [Example 23, N-[2-[1-(2-Benzoyl-hydrazono)-ethyl]-phenyl]-acetamide] |  |  | 250 µM | 
23 | CC(=NNC(=O)c1ccc(Cl)cc1)c1ccccc1N [Example 24, 4-Chloro-N′-[1-(2-amino-phenyl)-ethylidene]-benzohydrazide] |  |  | 0.8 µM | 
24 | Nc1ccc(Cl)cc1C(=O)NN=Cc1ccccc1O [Example 5, 2-Amino-5-chloro-N′-(2-hydroxy-benzylidene)-benzohydrazide] |  |  | 6 µM | 
25 | O=C(NN=Cc1ccc(O)c(O)c1O)c1cccc(C(F)(F)F)c1 [Example 51, 3-Trifluoromethyl-N′-(2,3,4-trihydroxy-benzylidene)-benzohydrazide] | 8 µg/mL (≈ 23.5 µM) | 64 µg/mL (≈ 188 µM) |  | 
26 | CC(=NNC(=O)c1ccc(Cl)c(Cl)c1)c1ccc(O)c(O)c1O [Example 52, 3,4-Dichloro-N′-[1-(2,3,4-dihydroxy-phenyl)-ethylidene]-benzohydrazide] |  |  |  | Minimum Inhibitory Concentration (MIC) Staphylococcus aureus ATCC25923 [1]: 4 micrograms/ml; Minimum Inhibitory Concentration (MIC) Escherichia coli DC2 [2]: 64 micrograms/ml
27 | COc1cccc(C(=O)NN=C(C)c2ccccc2O)c1 [Example 7, 3-Methoxy-N′-[1-(2-hydroxy-phenyl)-ethylidene]-benzohydrazide] |  |  | 8 µM | 
28 | COc1cccc(C(=O)NN=Cc2cc(O)ccc2O)c1 [Example 8, 3-Methoxy-N′-(2,5-dihydroxy-benzylidene)-benzohydrazide] |  |  | 15 µM | 
29 | O=C(NN=Cc1cc(Cl)cc(Cl)c1O)c1ccccc1 [Example 48, N′-(2-Hydroxy-3,5-dichloro-benzylidene)-benzohydrazide] | 128 µg/mL (≈ 414 µM) | > 128 µg/mL |  | 

Reference: patent US20040110963A1, “Novel hydrazones” (priority 2001, published 2004)
